From US7153650B2, “Marker system for preparing and characterizing high-quality human embryonic stem cells” (Geron Corporation, priority 2003, dated 2006)
Marks after values point to notes of the source that are not given here.

Tested on: hES cells
Experiment: Quantitative RT-PCR analysis of gene expression in hESC differentiation (culture with RA or DMSO)
Type: cell-based, human
Details: for Fold Change, 130 kDa leucine-rich protein (LRP 130) mRNA / Fold Change, Bone marrow stromal antigen 2 (BST-2) mRNA / Fold Change, Bone morphogenetic protein receptor, type Ia (BMPR1A) (ALK-3) mRNA / Fold Change, EST (GA_28053, T24677) / Fold Change, Early development regulator 1 (polyhomeotic 1 homolog) (EDR1) mRNA / Fold Change, Ephrin type-a receptor 1 (EPHA1) mRNA / Fold Change, FLJ31267 (acetylglucosaminyltransferase-like protein) mRNA / Fold Change, Fibroblast growth factor receptor 3 precursor (FGFR-3) mRNA / Fold Change, Forkhead box h1 (FOXH1) mRNA / Fold Change, Forkhead box o1a (foxo1a) mRNA / Fold Change, Gamma-aminobutyric acid (GABA) A receptor, beta 3 mRNA / Fold Change, Gastrin-releasing peptide receptor (GRP-R) mRNA / Fold Change, Glypican-2 (cerebroglycan) mRNA / Fold Change, Hypothetical protein BC018070 mRNA / Fold Change, Hypothetical protein FLJ14549 mRNA / Fold Change, Kallmann syndrome 1 sequence (KAL1) mRNA / Fold Change, Krab-zinc finger protein SZF1-1 mRNA / Fold Change, Left-right determination, factor b (LEFTB) mRNA / Fold Change, Nell2 (NEL-like protein 2) mRNA / Fold Change, Notch 1 (N1) mRNA / Fold Change, Octamer-binding transcription factor 3a (OCT-3A) (OCT-4) mRNA / Fold Change, Podocalyxin-like (PODXL) mRNA / Fold Change, Potassium channel subfamily k member 5 (TASK-2) mRNA / Fold Change, Protein tyrosine phosphatase, receptor-type, z polypeptide 1 (PTPRZ1) mRNA / Fold Change, Roundabout, axon guidance receptor, homolog 1 (ROBO1) mRNA / Fold Change, Sal-like 1 (SALL1) mRNA / Fold Change, Secreted phosphoprotein 1 (osteopontin) mRNA / Fold Change, Solute carrier family 6, member 8 (SLC6A8) mRNA / Fold Change, Telomerase reverse transcriptase (TERT) mRNA / Fold Change, Teratocarcinoma-derived growth factor 1 (CRIPTO) mRNA / Fold Change, Thy-1 co-transcribed mRNA / Fold Change, Zic family member 3 (ZIC3) mRNA / Fold Change, Zinc finger protein of cerebellum ZIC2 mRNA / Fold Change, Zinc finger protein, HSAL2 mRNA / Fold Change, Pr domain containing 14 (PRDM14) mRNA: hES cells cultured 1 week with 500 nM RA or 0.5% DMSO; for Fold Change, Pr domain containing 14 (PRDM14) mRNA: normalised to 18S rRNA, 2^-ddCT
Experimental: To verify the expression patterns of particular genes of interest at the mRNA level, extracts of undifferentiated hES cells and their differentiated progeny were assayed by real-time PCR. Cells were cultured for 1 week with 0.5% dimethyl sulfoxide (DMSO) or 500 nM retinoic acid (RA). The samples were amplified using sequence-specific primers, and the rate of amplification was correlated with the expression level of each gene in the cell population.
Taqman™ RT-PCR was performed under the following conditions: 1×RT Master Mix (ABI), 300 nM for each primer, and 80 nM of probe, and 10 pg to 100 ng of total RNA in nuclease-free water. The reaction was conducted under default RT-PCR conditions of 48° C. hold for 30 min, 95° C. hold for 10 min, and 40 cycles of 95° C. at 15 sec and 60° C. hold for 1 min. RNA was isolated by a guanidinium isothiocyanate method (RNAeasy™ kit, Qiagen) according to manufacturer's instructions, and subsequently DNAse treated (DNAfree™ kit, Ambion). Gene-specific primers and probes were designed by PrimerExpress™ software (Ver. 1.5, ABI). Probe oligonucleotides were synthesized with the fluorescent indicators 6-carboxyfluorescein (FAM) and 6-carboxy-tetramethylrhodamine (TAMRA) at the 5′ and 3′ ends, respectively. Relative quantitation of gene expression between multiple samples was achieved by normalization against endogenous 18S ribosomal RNA (primer and probe from ABI) using the ΔΔCT method of quantitation (ABI). Fold change in expression level was calculated as 2^−ΔΔCT.
Since the cells have been cultured in RA and DMSO for a short period, they are at the early stages of differentiation, and the difference in expression level is less dramatic than it would be after further differentiation. Of particular interest for following or modulating the differentiation process are markers that show modified expression within the first week of differentiation by more than 2-fold (*), 5-fold (**), 10-fold (***), or 100-fold (****).
KALL and EPHAL were not tested.

[1] = H9 hES cells after culturing for 7 days with RA or DM (FIG. 1)

SMILES	Fold Change, 130 kDa leucine-rich protein (LRP 130) mRNA [fold]	Fold Change, Bone marrow stromal antigen 2 (BST-2) mRNA [fold]	Fold Change, Bone morphogenetic protein receptor, type Ia (BMPR1A) (ALK-3) mRNA [fold]	Fold Change, EST (GA_28053, T24677)	Fold Change, Early development regulator 1 (polyhomeotic 1 homolog) (EDR1) mRNA [fold]	Fold Change, Ephrin type-a receptor 1 (EPHA1) mRNA [fold]	Fold Change, FLJ31267 (acetylglucosaminyltransferase-like protein) mRNA [fold]	Fold Change, Fibroblast growth factor receptor 3 precursor (FGFR-3) mRNA [fold]	Fold Change, Forkhead box h1 (FOXH1) mRNA [fold]	Fold Change, Forkhead box o1a (foxo1a) mRNA [fold]	Fold Change, Gamma-aminobutyric acid (GABA) A receptor, beta 3 mRNA [fold]	Fold Change, Gastrin-releasing peptide receptor (GRP-R) mRNA [fold]	Fold Change, Glypican-2 (cerebroglycan) mRNA [fold]	Fold Change, Hypothetical protein BC018070 mRNA [fold]	Fold Change, Hypothetical protein FLJ14549 mRNA [fold]	Fold Change, Kallmann syndrome 1 sequence (KAL1) mRNA [fold]	Fold Change, Krab-zinc finger protein SZF1-1 mRNA [fold]	Fold Change, Left-right determination, factor b (LEFTB) mRNA [fold]	Fold Change, Nell2 (NEL-like protein 2) mRNA [fold]	Fold Change, Notch 1 (N1) mRNA [fold]	further results
CC1=C(/C=C/C(C)=C/C=C/C(C)=C/C(=O)O)C(C)(C)CCC1 [RA, retinoic acid]	−1.9	1.1	−2.4	<−100* fold	−1.8	−1.3	−2.3	1.5	−1.8	−1.6	−2.8	−6.3	−1.5	−3.2	−2.3	−1.1	−1.8	−16.7	−1.3	1.3	Fold Change, Octamer-binding transcription factor 3a (OCT-3A) (OCT-4) mRNA: −3.7 fold; Fold Change, Podocalyxin-like (PODXL) mRNA: −2.6 fold; Fold Change, Potassium channel subfamily k member 5 (TASK-2) mRNA: −1.6 fold; Fold Change, Protein tyrosine phosphatase, receptor-type, z polypeptide 1 (PTPRZ1) mRNA: −1.7 fold; Fold Change, Roundabout, axon guidance receptor, homolog 1 (ROBO1) mRNA: 1.1 fold; Fold Change, Sal-like 1 (SALL1) mRNA: 1.4 fold; Fold Change, Secreted phosphoprotein 1 (osteopontin) mRNA: −3.8 fold; Fold Change, Solute carrier family 6, member 8 (SLC6A8) mRNA: −1.1 fold; Fold Change, Telomerase reverse transcriptase (TERT) mRNA: −2.1 fold; Fold Change, Teratocarcinoma-derived growth factor 1 (CRIPTO) mRNA: −4.0 fold; Fold Change, Thy-1 co-transcribed mRNA: −12.5 fold; Fold Change, Zic family member 3 (ZIC3) mRNA: −1.7 fold; Fold Change, Zinc finger protein of cerebellum ZIC2 mRNA: 1.0 fold; Fold Change, Zinc finger protein, HSAL2 mRNA: −1.4 fold; Fold Change, Pr domain containing 14 (PRDM14) mRNA: −1.9 fold
C[S+](C)[O-] [DMSO, dimethyl sulfoxide]	−1.9	−1.9	−2.4	<−100* fold	−5.6	−1.9	−4.5	2.3	−5.6	−2.9	−5.6	−9.1	−1.2	−10.0	−10.0	−2.5	−3.1	−25.0	−1.3	1.0	Gene expression of ICAM in differentiated cells [1]: below the limit of detection; Gene expression of rhodopsin in differentiated cells [1]: below the limit of detection; Fold Change, Octamer-binding transcription factor 3a (OCT-3A) (OCT-4) mRNA: −7.7 fold; Fold Change, Podocalyxin-like (PODXL) mRNA: −4.3 fold; Fold Change, Potassium channel subfamily k member 5 (TASK-2) mRNA: 1.0 fold; Fold Change, Protein tyrosine phosphatase, receptor-type, z polypeptide 1 (PTPRZ1) mRNA: −3.3 fold; Fold Change, Roundabout, axon guidance receptor, homolog 1 (ROBO1) mRNA: 1.0 fold; Fold Change, Sal-like 1 (SALL1) mRNA: −1.3 fold; Fold Change, Secreted phosphoprotein 1 (osteopontin) mRNA: −10.0 fold; Fold Change, Solute carrier family 6, member 8 (SLC6A8) mRNA: −1.1 fold; Fold Change, Telomerase reverse transcriptase (TERT) mRNA: −2.3 fold; Fold Change, Teratocarcinoma-derived growth factor 1 (CRIPTO) mRNA: −12.5 fold; Fold Change, Thy-1 co-transcribed mRNA: −11.1 fold; Fold Change, Zic family member 3 (ZIC3) mRNA: −5.3 fold; Fold Change, Zinc finger protein of cerebellum ZIC2 mRNA: −2.9 fold; Fold Change, Zinc finger protein, HSAL2 mRNA: −2.8 fold; Fold Change, Pr domain containing 14 (PRDM14) mRNA: −8.3 fold
